Experimental data published in patent US6500810B2, “Method of regulating expression of adhesion molecules on circulating leukocytes” (Sky High, LLC, priority 1999, dated 2002).

System: CD18
Experiment: Flow cytometry of CD18 on isolated rat neutrophils stimulated with LTB4
Assay type: cell-based
Conditions: in vitro
Protocol: Flow cytometric analysis of CD18 complex in rat neutrophils was performed according to standard procedures as described in Vedder & Harlan, J. Clin. Invest., 81:676-682 (1988). Rat neutrophils were freshly isolated from rat whole blood according to the method of Williams et al., J. Leukocyte Biol., 42:455-462 (1987). Isolated neutrophils were washed twice in calcium-free Tyrode's solution containing 0.2% bovine serum albumin (BSA) and suspended in RPMI1630 medium. Neutrophils (5×10^5 cells/tube) were incubated with a monoclonal antibody directed against CD18 (Endogen, Boston, Mass.) at 4° C. for 30 minutes. Excess primary antibody was then removed by washing the platelets or neutrophils in RPMI1630. A goat anti-human gig F(AB′)2 FITC conjugate was used as the secondary antibody at a 1:100 dilution (4° C. for 30 minutes). The stained neutrophils were washed twice with RPMI1630 and finally fixed in 1% paraformaldehyde, and then analyzed by flow cytometry (FACScan, Becton-Dickinson, San Jose, Calif.).

CCCCCCCC/C=C\CCCCCCCC(=O)OCC(COP(O)(O)=S)OC (racemic) [LXR-1035, rac-1-thiophosphate-2-O-methyl-3-oleioyl-glycerol]
cell surface expression of the adhesion molecule CD18: inhibits
